Legend:
Experiment in all cases: relative viability (nuclei count vs DMSO), 5 days (fraction); higher = more cells survive
Vorinostat = compound: O=C(CCCCCCC(=O)Nc1ccccc1)NO [Vorinostat]
In short: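 Cells of lung cancer lines were placed in 1536-well plates and kept overnight at 37 °C. Pinning then delivered five library-drug doses (not always all listed), spaced by √10, onto plates anchored with vehicle, and the cells were left 5 days without changing medium. One step fixed, permeabilised and stained them with Hoechst, and MetaXpress counted nuclei in 4× images. Viability, as a median over plates, is treated-well nuclei divided by vehicle-well nuclei, with acceptance only at control CV below 25% and at least one doubling.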

Vorinostat + Tozasertib = compound: O=C(CCCCCCC(=O)Nc1ccccc1)NO [Vorinostat] + Cc1cc(Nc2cc(N3CCN(C)CC3)nc(Sc3ccc(NC(=O)C4CC4)cc3)n2)n[nH]1 [Tozasertib] (partner 0.1 µM)
In short: (§1)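 Lung cancer cell lines, seeded in 1536-well plates, were treated the following day by pin tool with a single drug or with five library-drug doses (not always all listed) in √10 steps on top of a fixed anchor-drug dose. Cells were fixed and nuclei stained in one step after 5 days, and nuclei were counted. Relative viability is the nuclei count for treated wells divided by that for vehicle wells, reported as medians of duplicate plates.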

Vorinostat + Linsitinib = compound: O=C(CCCCCCC(=O)Nc1ccccc1)NO [Vorinostat] + C[C@]1(O)C[C@@H](c2nc(-c3ccc4ccc(-c5ccccc5)nc4c3)c3c(N)nccn32)C1 [Linsitinib] (partner 1 µM)
In short: as §1

Vorinostat + OSI-027 = compound: O=C(CCCCCCC(=O)Nc1ccccc1)NO [Vorinostat] + COc1cccc2cc(-c3nc([C@H]4CC[C@H](C(=O)O)CC4)n4ncnc(N)c34)[nH]c12 [OSI-027] (partner 0.5 µM)
In short: as §1

Cell Line	relative viability (Vorinostat; 0.253 µM)	relative viability (Vorinostat; 0.8 µM)	relative viability (Vorinostat; 1 µM, anchor plate)	relative viability (Vorinostat; 2.53 µM)	relative viability (Vorinostat; 8 µM)	relative viability (Vorinostat + Tozasertib; first compound 0.253 µM)	relative viability (Vorinostat + Tozasertib; first compound 0.8 µM)	relative viability (Vorinostat + Tozasertib; first compound 2.53 µM)	relative viability (Vorinostat + Tozasertib; first compound 8 µM)	relative viability (Vorinostat + Linsitinib; first compound 0.253 µM)	relative viability (Vorinostat + Linsitinib; first compound 0.8 µM)	relative viability (Vorinostat + Linsitinib; first compound 2.53 µM)	relative viability (Vorinostat + Linsitinib; first compound 8 µM)	relative viability (Vorinostat + OSI-027; first compound 0.253 µM)	relative viability (Vorinostat + OSI-027; first compound 0.8 µM)	relative viability (Vorinostat + OSI-027; first compound 2.53 µM)	relative viability (Vorinostat + OSI-027; first compound 8 µM)
NCI-H1666	1.05	0.955	1.01	0.514	0.348	0.499	0.346	0.307	0.259	0.864	0.707	0.33	0.227	0.772	0.678	0.383	0.335
NCI-H1734	1.28	0.982	0.832	0.688	0.15	0.258	0.229	0.162	0.133	0.982	0.856	0.658	0.133	0.803	0.672	0.362	0.137
NCI-H1755	1.08	1.01	0.735	0.566	0.292	0.613	0.51	0.319	0.179	1.07	1.05	0.512	0.188	0.734	0.681	0.384	0.185
NCI-H1793	1.37	0.951	0.821	0.817	0.29	0.316	0.256	0.179	0.125	0.781	0.95	0.703	0.215	0.328	0.32	0.302	0.151
NCI-H1915	1.12	0.878	0.524	0.514	0.123	0.426	0.267	0.118	0.104	1.12	1.03	0.587	0.113	0.632	0.5	0.205	0.152
NCI-H1944	0.927	0.707	0.57	0.341	0.21	0.239	0.221	0.132	0.0956	1.21	0.948	0.697	0.207	0.413	0.287	0.226	0.165
NCI-H1975	1.08	0.817	0.707	0.449	0.14	0.762	0.484	0.118	0.077	0.987	0.8	0.294	0.145	0.783	0.609	0.231	0.121
NCI-H1993	1.08	1	0.823	0.705	0.56	0.633	0.608	0.489	0.457	0.836	0.861	0.575	0.614	0.53	0.63	0.568	0.525

From the supplement of paper PMC10307832
